This note sets out measurements from patent publication US10988459B2 (priority 2015, dated 2021).

Read-outs that look alike come from different tables or passages of the source.

This assay addresses human RIP1 kinase domain (2-375) (Homo sapiens (Human), UniProt Q13546). As to the kind of experiment: biochemical. The assay is classed as biochemical. The settings on record: 50 uM ATP. Put shortly:
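Ki^app comes from Morrison tight-binding fits of fractional activity versus compound concentration. Activity was read as ADP production, via tracer displacement lowering fluorescence polarization (633 nm laser). Conditions: 2 h, 50 nM insect-cell-expressed enzyme, 50 uM ATP, 30 mM MgCl2, 1 mM DTT, 0.5% DMSO, pH 7.5 Hepes.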

The mark [1] stands for this setting: human RIP1 kinase domain (2-375), Transcreener ADP assay, 2 hours incubation, read-out: RIP1 Ki.
Where [2] appears, read: tight-binding apparent inhibition constant, human RIP1 kinase domain (2-375) 50 nM, 2 hours, read-out: Ki.
[3] abbreviates: human RIP1 kinase domain (2-375), 2 hours incubation, Transcreener ADP assay, read-out: RIP1 Ki.
Setting [4] is: Table 5, apparent Ki (Morrison tight-binding fit), 50 nM RIP1 kinase domain, 2 hours incubation, read-out: Ki.

human RIP1 kinase domain (2-375), sequence (Q13546 2-375): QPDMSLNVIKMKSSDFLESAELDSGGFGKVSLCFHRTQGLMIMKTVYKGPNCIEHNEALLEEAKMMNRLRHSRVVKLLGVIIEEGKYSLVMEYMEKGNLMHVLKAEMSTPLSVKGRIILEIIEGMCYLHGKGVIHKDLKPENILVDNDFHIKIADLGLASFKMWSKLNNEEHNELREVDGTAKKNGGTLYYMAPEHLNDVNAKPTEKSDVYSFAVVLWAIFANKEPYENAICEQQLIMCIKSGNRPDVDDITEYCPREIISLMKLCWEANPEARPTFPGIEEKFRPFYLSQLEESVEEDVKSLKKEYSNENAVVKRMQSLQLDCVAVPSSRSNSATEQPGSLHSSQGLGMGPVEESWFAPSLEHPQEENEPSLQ

Consider `Cc1cc2n(n1)CCC(NC(=O)c1ncn(CC3CCC3)n1)C(=O)N2C` (stereo not shown) [Example 247, 1-(cyclobutylmethyl)-N-(2,4-dimethyl-5-oxo-5,6,7,8-tetrahydro-4H-pyrazolo[1,5-a][1,3]diazepin-6-yl)-1H-1,2,4-triazole-3-carboxamide], for which the Ki under setting [1] is 221 nM. `CN1C(=O)[C@@H](NC(=O)c2ncn(Cc3ccc(F)cc3)n2)CCn2nc(C(F)(F)F)cc21` [Example 525]: the Ki under setting [2] was 46 nM. On the same count and under the same terms, as for `O=C(N[C@H]1COc2cc(F)cc(F)c2NC1=O)c1nc2n(n1)CCO[C@@H]2c1ccccc1` [Example 641, (8R)-8-phenyl-N-[(3S)-6,8-difluoro-4-oxo-3,5-dihydro-2H-1,5-benzoxazepin-3-yl]-6,8-dihydro-5H-[1,2,4]triazolo[5,1-c][1,4]oxazine-2-carboxamide], the figure is 470 nM; as for `Cc1ncn2c1N(C)C(=O)[C@H](NC(=O)c1ncn(Cc3c(F)cccc3F)n1)CC2` [Example 581, 1-[(2,6-difluorophenyl)methyl]-N-(3R)-1,9-dimethyl-2-oxo-4,5-dihydro-3H-imidazo[1,5-a][1,3]diazepin-3-yl-1,2,4-triazole-3-carboxamide], 47 nM; as for `Cc1cc2n(n1)CC[C@H](NC(=O)c1ncn(Cc3cccc(F)c3)n1)C(=O)N2C` [Example 519, 1-[(3-fluorophenyl)methyl]-N-(6S)-2,4-dimethyl-5-oxo-7,8-dihydro-6H-pyrazolo[1,5-a][1,3]diazepin-6-yl-1,2,4-triazole-3-carboxamide], 11 nM. For `Cc1nc(C)n2c1N(C)C(=O)[C@H](NC(=O)c1ncn(Cc3cc(F)ccc3F)n1)CC2` [Example 598, 1-[(2,5-difluorophenyl)methyl]-N-(3R)-1,7,9-trimethyl-2-oxo-4,5-dihydro-3H-imidazo[1,5-a][1,3]diazepin-3-yl-1,2,4-triazole-3-carboxamide], the Ki under setting [2] turned out to be 130 nM. In the case of “(S)—N-(5-methyl-4-oxo-2,3,4,5-tetrahydrobenzo[b][1,4]oxazepin-3-yl)-6-(trifluoromethyl)-[1,2,4]triazolo[4,3-a]pyridine-3-carboxamide [Example 113]”, under setting [3], the Ki stood at 1700 nM. In the case of `CN1C(=O)[C@@H](NC(=O)c2nnn3c2CC(C(F)(F)C(F)(F)F)CC3)COc2ccccc21` (stereo partly drawn) [Example 277, N—((S)-5-methyl-4-oxo-2,3,4,5-tetrahydrobenzo[b][1,4]oxazepin-3-yl)-5-(perfluoroethyl)-4,5,6,7-tetrahydro-[1,2,3]triazolo[1,5-a]pyridine-3-carboxamide], the Ki under setting [1] came out at 23.9 nM. For the compound `CCC[C@H]1CCCc2nc(C(=O)N[C@H]3COc4ccccc4N(C)C3=O)nn21` (racemic) [Example 415, (S)—N—((S)-5-methyl-4-oxo-2,3,4,5-tetrahydrobenzo[b][1,4]oxazepin-3-yl)-5-propyl-5,6,7,8-tetrahydro-[1,2,4]triazolo[1,5-a]pyridine-2-carboxamide], the Ki under setting [2] was determined as 12.6 nM. With `CN1C(=O)[C@@H](NC(=O)c2ncn(Cc3ccc(F)cc3F)n2)CCn2nc([C@H]3CC3(F)F)cc21` [Example 315, 1-(2,4-difluorobenzyl)-N—((S)-2-((R)-2,2-difluorocyclopropyl)-4-methyl-5-oxo-5,6,7,8-tetrahydro-4H-pyrazolo[1,5-a][1,3]diazepin-6-yl)-1H-1,2,4-triazole-3-carboxamide], the Ki under setting [1] amounted to 9500 nM. On to `CN1C(=O)[C@@H](NC(=O)c2ncn(Cc3ccc(F)cc3)n2)CCn2nccc21` (racemic) [Example 339, 1-[(4-fluorophenyl)methyl]-N-[rac-(6S)-4-methyl-5-oxo-7,8-dihydro-6H-pyrazolo[1,5-a][1,3]diazepin-6-yl]-1,2,4-triazole-3-carboxamide], for which the Ki under setting [2] was found to be 28.2 nM.

`CN1C(=O)[C@@H](NC(=O)c2nnc(Cc3ccccc3)[nH]2)CCn2nc([C@H]3CC3(F)F)cc21` (racemic) [Example 672, 5-benzyl-N-[rac-(6S)-4-methyl-5-oxo-2-[rac-(1R)-2,2-difluorocyclopropyl]-7,8-dihydro-6H-pyrazolo[1,5-a] [1,3]diazepin-6-yl]-4H-1,2,4-triazole-3-carboxamide]: the Ki under setting [2] is 56 nM. With `CN1C(=O)[C@@H](NC(=O)c2nc3n(n2)CCCC3c2ccccc2)COc2ccccc21` (stereo partly drawn) [Example 553, 8-phenyl-N-[(3S)-5-methyl-4-oxo-2,3-dihydro-1,5-benzoxazepin-3-yl]-5,6,7,8-tetrahydro-[1,2,4]triazolo[1,5-a]pyridine-2-carboxamide], under setting [2], the Ki turned out to be 8.7 nM. Consider `CC(C)[C@H]1CCCc2nc(C(=O)N[C@H]3COc4cc(F)cc(F)c4NC3=O)nn21` (single isomer, unassigned) [Example 447], for which the Ki under setting [2] amounted to 207 nM. For `CN1C(=O)[C@@H](NC(=O)c2ncn(Cc3ccccc3)n2)CCn2nc(CCO)cc21` [Example 766, 1-benzyl-N-[(6S)-2-(2-hydroxyethyl)-4-methyl-5-oxo-7,8-dihydro-6H-pyrazolo[1,5-a][1,3]diazepin-6-yl]-1,2,4-triazole-3-carboxamide], under setting [4], the Ki stood at 84 nM.

`Cc1cc2n(n1)CC[C@H](NC(=O)c1ncc3c(n1)C1(CCOC1)OC3)C(=O)N2C` (stereo partly drawn) [Example 551, N-[(6S)-2,4-dimethyl-5-oxo-7,8-dihydro-6H-pyrazolo[1,5-a][1,3]diazepin-6-yl]spiro[5H-furo[3,4-d]pyrimidine-7,3′-tetrahydrofuran]-2-carboxamide]: the Ki under setting [2] worked out at 960 nM. For `CN1C(=O)[C@@H](NC(=O)c2n[nH]c3c2CN(CC(F)(F)F)CC3)COc2ccccc21` [Example 5, (S)—N-(5-methyl-4-oxo-2,3,4,5-tetrahydrobenzo[b][1,4]oxazepin-3-yl)-5-(2,2,2-trifluoroethyl)-4,5,6,7-tetrahydro-1H-pyrazolo[4,3-c]pyridine-3-carboxamide], the Ki (Table 1, apparent Ki (Morrison tight-binding fit), 50 nM RIP1 kinase domain, 2 hours incubation, read-out: RIP1 Ki) is 1500 nM. `CC[C@]1(C)OCc2cnc(C(=O)N[C@H]3CCn4nc(C)cc4N(C)C3=O)nc21` (racemic) [Example 690, rac-(7S)-7-ethyl-7-methyl-N-[rac-(6S)-2,4-dimethyl-5-oxo-7,8-dihydro-6H-pyrazolo [1,5-a][1,3]diapepin-6-yl]-5H-furo[3,4-d]pyrimidine-2-carboxamide]: the Ki under setting [2] is 1180 nM.

Turning to `CN1C(=O)[C@@H](NC(=O)c2ncc3c(n2)C(C)(C)SC3)COc2ccccc21` [Example 218, (S)-7,7-dimethyl-N-(5-methyl-4-oxo-2,3,4,5-tetrahydrobenzo[b][1,4]oxazepin-3-yl)-5,7-dihydrothieno[3,4-d]pyrimidine-2-carboxamide], the Ki under setting [3] came out at 25.4 nM. `COCCc1cc2n(n1)CC[C@H](NC(=O)c1ncn(Cc3ccccc3)n1)C(=O)N2C` [Example 767, 1-benzyl-N-[(6S)-2-(2-methoxyethyl)-4-methyl-5-oxo-7,8-dihydro-6H-pyrazolo [1,5-a][1,3]diazepin-6-yl]-1,2,4-triazole-3-carboxamide]: the Ki under setting [4] came out at 64 nM. For the compound `CN1C(=O)[C@@H](NC(=O)c2ncc3cnn(C(F)(F)F)c3n2)COc2ccccc21` [Example 360, N-[(3S)-5-methyl-4-oxo-2,3-dihydro-1,5-benzoxazepin-3-yl]-1-(trifluoromethyl)pyrazolo[3,4-d]pyrimidine-6-carboxamide], under setting [2], the Ki is 10.4 nM. `CN1C(=O)[C@@H](NC(=O)c2ccn(Cc3ccccc3)n2)CCn2nccc21` [Example 740, 1-benzyl-N-[(6S)-4-methyl-5-oxo-7,8-dihydro-6H-pyrazolo[1,5-a][1,3]diazepin-6-yl]pyrazole-3-carboxamide]: under setting [4], the Ki worked out at 137 nM.
